Results published in patent publication US10072026B2, “Crystalline form of 3-((1R,3s,5S)-3-((7-((5-methyl-1H-pyrazol-3-yl)amino)-1,6-naphthyridin-5-yl)amino)-8-azabicyclo[3.2.1]octan-8-yl)propanenitrile” (priority 2015, dated 2018).

Assays:
JAK3 = JAK3 (Homo sapiens (Human), UniProt P52333); assay: LanthaScreen JAK biochemical assay (JAK3)
[1] = test system: IL-4 induced STAT6 phosphorylation in THP-1 human monocytic cells; assay: Cellular JAK potency assay, THP-1
JAK2 = JAK2 (Homo sapiens (Human), UniProt O60674); assay: LanthaScreen JAK biochemical assay (JAK2)
Sequence of JAK2 (O60674 whole entry): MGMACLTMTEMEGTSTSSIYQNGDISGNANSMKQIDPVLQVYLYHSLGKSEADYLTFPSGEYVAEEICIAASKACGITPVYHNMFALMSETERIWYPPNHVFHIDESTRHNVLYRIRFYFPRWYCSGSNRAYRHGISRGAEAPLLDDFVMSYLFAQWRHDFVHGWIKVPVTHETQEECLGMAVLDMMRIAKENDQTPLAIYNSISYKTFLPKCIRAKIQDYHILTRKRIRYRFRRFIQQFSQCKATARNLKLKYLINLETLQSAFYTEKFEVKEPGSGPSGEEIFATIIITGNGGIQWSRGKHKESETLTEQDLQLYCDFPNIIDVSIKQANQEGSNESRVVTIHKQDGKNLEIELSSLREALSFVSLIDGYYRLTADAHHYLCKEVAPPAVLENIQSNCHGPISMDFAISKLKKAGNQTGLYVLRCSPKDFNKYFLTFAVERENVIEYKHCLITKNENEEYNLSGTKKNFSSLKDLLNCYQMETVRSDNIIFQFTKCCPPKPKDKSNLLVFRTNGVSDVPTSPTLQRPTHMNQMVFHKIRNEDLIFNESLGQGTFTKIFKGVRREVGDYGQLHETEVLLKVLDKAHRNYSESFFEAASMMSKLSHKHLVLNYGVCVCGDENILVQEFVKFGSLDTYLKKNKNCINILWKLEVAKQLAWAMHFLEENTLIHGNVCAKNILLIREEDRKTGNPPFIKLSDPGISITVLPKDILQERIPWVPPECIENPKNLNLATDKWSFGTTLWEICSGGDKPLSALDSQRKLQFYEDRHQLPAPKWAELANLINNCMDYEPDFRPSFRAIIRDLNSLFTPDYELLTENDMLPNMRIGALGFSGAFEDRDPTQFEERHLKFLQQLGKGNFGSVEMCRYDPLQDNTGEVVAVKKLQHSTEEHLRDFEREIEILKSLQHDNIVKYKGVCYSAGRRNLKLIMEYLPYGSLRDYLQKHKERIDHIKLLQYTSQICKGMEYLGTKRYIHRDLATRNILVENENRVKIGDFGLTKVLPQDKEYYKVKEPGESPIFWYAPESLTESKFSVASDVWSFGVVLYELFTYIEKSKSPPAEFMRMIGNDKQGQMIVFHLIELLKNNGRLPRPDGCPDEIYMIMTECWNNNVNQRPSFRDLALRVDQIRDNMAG

[2] = test system: IL-13 induced STAT6 phosphorylation in BEAS-2B human lung epithelial cells; assay: AlphaScreen cellular JAK potency assay, BEAS-2B
JAK1 = JAK1 (Homo sapiens (Human), UniProt P23458); assay: LanthaScreen JAK biochemical assay (JAK1)
Sequence of JAK1 (P23458 whole entry): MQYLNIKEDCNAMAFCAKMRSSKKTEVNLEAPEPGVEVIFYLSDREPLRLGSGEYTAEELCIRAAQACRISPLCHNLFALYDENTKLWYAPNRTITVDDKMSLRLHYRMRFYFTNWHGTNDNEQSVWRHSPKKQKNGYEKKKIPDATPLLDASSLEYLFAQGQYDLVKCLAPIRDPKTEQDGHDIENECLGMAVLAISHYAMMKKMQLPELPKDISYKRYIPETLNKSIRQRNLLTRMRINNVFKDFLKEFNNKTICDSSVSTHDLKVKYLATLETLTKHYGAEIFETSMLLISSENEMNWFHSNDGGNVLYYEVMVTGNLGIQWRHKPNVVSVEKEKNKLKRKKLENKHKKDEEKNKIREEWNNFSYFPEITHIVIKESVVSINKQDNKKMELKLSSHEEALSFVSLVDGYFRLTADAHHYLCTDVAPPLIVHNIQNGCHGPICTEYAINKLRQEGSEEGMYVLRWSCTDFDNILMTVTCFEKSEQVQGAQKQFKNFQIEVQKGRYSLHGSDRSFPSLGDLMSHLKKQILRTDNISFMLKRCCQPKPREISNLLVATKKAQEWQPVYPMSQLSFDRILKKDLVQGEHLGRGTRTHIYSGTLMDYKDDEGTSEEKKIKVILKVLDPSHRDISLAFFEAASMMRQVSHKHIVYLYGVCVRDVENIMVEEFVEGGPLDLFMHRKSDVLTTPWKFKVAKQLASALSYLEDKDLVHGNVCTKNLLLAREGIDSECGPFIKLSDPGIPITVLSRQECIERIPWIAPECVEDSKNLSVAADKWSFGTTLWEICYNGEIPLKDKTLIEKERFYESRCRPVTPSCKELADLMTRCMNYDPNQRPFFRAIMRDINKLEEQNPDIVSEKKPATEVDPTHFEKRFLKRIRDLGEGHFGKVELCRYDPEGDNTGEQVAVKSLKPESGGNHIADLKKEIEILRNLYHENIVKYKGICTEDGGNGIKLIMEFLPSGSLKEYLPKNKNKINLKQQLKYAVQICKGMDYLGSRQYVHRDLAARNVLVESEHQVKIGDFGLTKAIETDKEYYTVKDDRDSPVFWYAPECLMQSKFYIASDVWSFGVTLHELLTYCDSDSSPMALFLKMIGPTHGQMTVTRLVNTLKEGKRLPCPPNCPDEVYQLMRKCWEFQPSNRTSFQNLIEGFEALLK

[3] = THP-1 cells, IL-4 induced STAT6 phosphorylation
[4] = BEAS-2B cells, IL-13 induced STAT6 phosphorylation
[5] = IL-4 induced STAT6 phosphorylation, THP-1 cells

Compound | JAK 3 (pKi) (JAK3) | THP-1 IL4 pIC50 [1, 3] | JAK 2 (pKi) (JAK2) | BEAS2B pIC50 [2, 4] | JAK 1 (pKi) (JAK1) | THP-1 IL4 pIC50 [1, 5] | BEAS2B pIC50 ([2]; IL-13 induced STAT6 phosphorylation, BEAS-2B cells)
Cc1cc(Nc2nc(N[C@@H]3C[C@H]4CCC[C@@H](C3)N4Cc3ccncc3)c3cccnc3c2F)n[nH]1 [Example 8-14] | C (C represents a pKi value between 7 and 9 (Ki between 100 nM and 1 nM)) | A (A represents a pEC50 value≥7.5 (EC50≤32 nM)) | B (B represents a pKi value between 9 and 10 (Ki between 1 nM and 0.1 nM)) | A (A represents a pEC50 value≥7.5 (EC50≤32 nM)) | B (B represents a pKi value between 9 and 10 (Ki between 1 nM and 0.1 nM)) |  | 
Cc1cc(Nc2nc(N[C@@H]3C[C@H]4CCC[C@@H](C3)N4CCC#N)c3cccnc3c2F)n[nH]1 [Example 8-9] | C (C represents a pKi value between 7 and 9 (Ki between 100 nM and 1 nM)) | B (B represents a pEC50 value between 6.7 and 7.5 (EC50 between 200 nM and 32 nM)) | B (B represents a pKi value between 9 and 10 (Ki between 1 nM and 0.1 nM)) |  | B (B represents a pKi value between 9 and 10 (Ki between 1 nM and 0.1 nM)) |  | 
Cc1cc(Nc2nc(N[C@@H]3C[C@H]4CC[C@@H](C3)N4S(C)(=O)=O)c3cccnc3c2F)n[nH]1 [Example 8-2] | C (C represents a pKi value between 7 and 9 (Ki between 100 nM and 1 nM)) | A (A represents a pEC50 value≥7.5 (EC50≤32 nM)) | B (B represents a pKi value between 9 and 10 (Ki between 1 nM and 0.1 nM)) | C (C represents a pEC50 value<6.7 (EC50>200 nM)) | B (B represents a pKi value between 9 and 10 (Ki between 1 nM and 0.1 nM)) |  | 
COC(=O)CCN1[C@@H]2CCC[C@H]1C[C@H](Nc1nc(Nc3cc(C)[nH]n3)cc3ncccc13)C2 [Example 1-33] | C (C represents a pKi value between 7 and 9 (Ki between 100 nM and 1 nM)) |  | B (B represents a pKi value between 9 and 10 (Ki between 1 nM and 0.1 nM)) |  | B (B represents a pKi value between 9 and 10 (Ki between 1 nM and 0.1 nM)) | C (C represents a pEC50 value<6.7 (EC50>200 nM)) | 
Cc1cc(Nc2cc3ncccc3c(N[C@@H]3C[C@H]4CC[C@@H](C3)N4CC(N)=O)n2)n[nH]1 [Example 1-6] | C (C represents a pKi value between 7 and 9 (Ki between 100 nM and 1 nM)) |  | B (B represents a pKi value between 9 and 10 (Ki between 1 nM and 0.1 nM)) |  | B (B represents a pKi value between 9 and 10 (Ki between 1 nM and 0.1 nM)) | C (C represents a pEC50 value<6.7 (EC50>200 nM)) | 
CCS(=O)(=O)N1[C@@H]2CCC[C@H]1C[C@H](Nc1nc(Nc3cc(C)[nH]n3)cc3nc(CN4CCOCC4)ccc13)C2 [Example 5-23] | B (B represents a pKi value between 9 and 10 (Ki between 1 nM and 0.1 nM)) |  | A (A represents a pKi value≥10 (Ki≤0.1 nM)) |  | A (A represents a pKi value≥10 (Ki≤0.1 nM)) | A (A represents a pEC50 value≥7.5 (EC50≤32 nM)) | 
Cc1cnc2c(F)c(Nc3cc(C)[nH]n3)nc(N[C@@H]3C[C@H]4CCC[C@@H](C3)N4S(=O)(=O)c3cccnc3)c2c1 [Example 8-24] | C (C represents a pKi value between 7 and 9 (Ki between 100 nM and 1 nM)) | B (B represents a pEC50 value between 6.7 and 7.5 (EC50 between 200 nM and 32 nM)) | B (B represents a pKi value between 9 and 10 (Ki between 1 nM and 0.1 nM)) | B (B represents a pEC50 value between 6.7 and 7.5 (EC50 between 200 nM and 32 nM)) | B (B represents a pKi value between 9 and 10 (Ki between 1 nM and 0.1 nM)) |  | 
Cc1cc(Nc2cc3ncc(S(C)(=O)=O)cc3c(N[C@@H]3C[C@H]4CC[C@@H](C3)N4C(=O)CC#N)n2)n[nH]1 [Example 6-51] | C (C represents a pKi value between 7 and 9 (Ki between 100 nM and 1 nM)) | C (C represents a pEC50 value<6.7 (EC50>200 nM)) | B (B represents a pKi value between 9 and 10 (Ki between 1 nM and 0.1 nM)) |  | B (B represents a pKi value between 9 and 10 (Ki between 1 nM and 0.1 nM)) |  | 
Cc1cc(Nc2nc(N[C@@H]3C[C@H]4CC[C@@H](C3)N4CCC#N)c3cccnc3c2F)n[nH]1 [Example 8-1] | C (C represents a pKi value between 7 and 9 (Ki between 100 nM and 1 nM)) | B (B represents a pEC50 value between 6.7 and 7.5 (EC50 between 200 nM and 32 nM)) | B (B represents a pKi value between 9 and 10 (Ki between 1 nM and 0.1 nM)) |  | B (B represents a pKi value between 9 and 10 (Ki between 1 nM and 0.1 nM)) |  | 
Cc1cc(Nc2nc(N[C@@H]3C[C@H]4CCC[C@@H](C3)N4S(=O)(=O)c3cncc(F)c3)c3cccnc3c2F)n[nH]1 [Example 8-13] | C (C represents a pKi value between 7 and 9 (Ki between 100 nM and 1 nM)) | B (B represents a pEC50 value between 6.7 and 7.5 (EC50 between 200 nM and 32 nM)) | B (B represents a pKi value between 9 and 10 (Ki between 1 nM and 0.1 nM)) | A (A represents a pEC50 value≥7.5 (EC50≤32 nM)) | B (B represents a pKi value between 9 and 10 (Ki between 1 nM and 0.1 nM)) |  | 
Cc1cnc2cc(Nc3cc(C)[nH]n3)nc(N[C@@H]3C[C@H]4CCC[C@@H](C3)N4CCC#N)c2c1 [Example 6-6] | B (B represents a pKi value between 9 and 10 (Ki between 1 nM and 0.1 nM)) | A (A represents a pEC50 value≥7.5 (EC50≤32 nM)) | A (A represents a pKi value≥10 (Ki≤0.1 nM)) | A (A represents a pEC50 value≥7.5 (EC50≤32 nM)) |  |  | 
Cc1cc(Nc2cc3ncccc3c(N[C@@H]3C[C@H]4CCC[C@@H](C3)N4CC(=O)N[C@@H]3CCOC3=O)n2)n[nH]1 [Example 1-41] | B (B represents a pKi value between 9 and 10 (Ki between 1 nM and 0.1 nM)) |  | A (A represents a pKi value≥10 (Ki≤0.1 nM)) |  |  | C (C represents a pEC50 value<6.7 (EC50>200 nM)) | 
Cc1cc(Nc2cc3ncccc3c(N[C@@H]3C[C@H]4CCC[C@@H](C3)N4Cc3ccc(O)cc3)n2)n[nH]1 [Example 1-50] | C (C represents a pKi value between 7 and 9 (Ki between 100 nM and 1 nM)) |  | A (A represents a pKi value≥10 (Ki≤0.1 nM)) |  | A (A represents a pKi value≥10 (Ki≤0.1 nM)) | B (B represents a pEC50 value between 6.7 and 7.5 (EC50 between 200 nM and 32 nM)) | 
Cc1cc(Nc2cc3ncccc3c(N[C@@H]3C[C@H]4CCC[C@@H](C3)N4S(=O)(=O)C3CNC3)n2)n[nH]1 [Example 4-21] | C (C represents a pKi value between 7 and 9 (Ki between 100 nM and 1 nM)) |  | B (B represents a pKi value between 9 and 10 (Ki between 1 nM and 0.1 nM)) |  |  | C (C represents a pEC50 value<6.7 (EC50>200 nM)) | 
COc1cnc2cc(Nc3cc(C)[nH]n3)nc(N[C@@H]3C[C@H]4CC[C@@H](C3)N4C(=O)OCC(C)C)c2c1 [Example 6-25] | C (C represents a pKi value between 7 and 9 (Ki between 100 nM and 1 nM)) | B (B represents a pEC50 value between 6.7 and 7.5 (EC50 between 200 nM and 32 nM)) |  | A (A represents a pEC50 value≥7.5 (EC50≤32 nM)) |  |  | 
Cc1cnc2cc(Nc3cc(C)[nH]n3)nc(N[C@@H]3C[C@H]4CC[C@@H](C3)N4C(=O)OCC(C)C)c2c1 [Example 6-3] | C (C represents a pKi value between 7 and 9 (Ki between 100 nM and 1 nM)) | B (B represents a pEC50 value between 6.7 and 7.5 (EC50 between 200 nM and 32 nM)) | B (B represents a pKi value between 9 and 10 (Ki between 1 nM and 0.1 nM)) | B (B represents a pEC50 value between 6.7 and 7.5 (EC50 between 200 nM and 32 nM)) | B (B represents a pKi value between 9 and 10 (Ki between 1 nM and 0.1 nM)) |  | 
Cc1cc(Nc2cc3ncccc3c(N[C@@H]3C[C@H]4CC[C@@H](C3)N4CC(=O)N(C)C)n2)n[nH]1 [Example 1-8] | C (C represents a pKi value between 7 and 9 (Ki between 100 nM and 1 nM)) |  |  |  | B (B represents a pKi value between 9 and 10 (Ki between 1 nM and 0.1 nM)) | C (C represents a pEC50 value<6.7 (EC50>200 nM)) | 
Cc1cc(Nc2cc3ncccc3c(N[C@@H]3C[C@H]4CCC[C@@H](C3)N4CC(=O)N[C@H]3CCOC3=O)n2)n[nH]1 [Example 1-42] | B (B represents a pKi value between 9 and 10 (Ki between 1 nM and 0.1 nM)) |  | A (A represents a pKi value≥10 (Ki≤0.1 nM)) |  |  | C (C represents a pEC50 value<6.7 (EC50>200 nM)) | 
CNC(=O)CN1[C@@H]2CC[C@H]1C[C@H](Nc1nc(Nc3cc(C)[nH]n3)cc3ncc(C(=O)OC)cc13)C2 [Example 6-42] | C (C represents a pKi value between 7 and 9 (Ki between 100 nM and 1 nM)) | C (C represents a pEC50 value<6.7 (EC50>200 nM)) | B (B represents a pKi value between 9 and 10 (Ki between 1 nM and 0.1 nM)) |  | B (B represents a pKi value between 9 and 10 (Ki between 1 nM and 0.1 nM)) |  | 
C=CCOC(=O)N1[C@@H]2CC[C@H]1C[C@H](Nc1nc(Nc3cc(C)[nH]n3)cc3nc(OC)ccc13)C2 [Example 5-7] | C (C represents a pKi value between 7 and 9 (Ki between 100 nM and 1 nM)) |  |  |  | B (B represents a pKi value between 9 and 10 (Ki between 1 nM and 0.1 nM)) | B (B represents a pEC50 value between 6.7 and 7.5 (EC50 between 200 nM and 32 nM)) | A (A represents a pEC50 value≥7.5 (EC50≤32 nM))
